Measured values from patent publication US9499464B2, “Opsin-binding ligands, compositions and methods of use” (priority 2011, dated 2016).

system: P23H opsin; test: Rhodopsin purification and regeneration (P23H cells treated with compound, regenerated with 9-cis-retinal, 480-500 nm absorbance); details: FIG. 1; P23H opsin treated with 20 µM during mutant protein production, relative to vehicle (DMSO) alone

For `CC(=O)/C=C/C1=C(C)CCCC1(C)C` [β-ionone, reference compound], the “regeneration of 500 nm absorbing pigment upon treatment with retinal” value was “increase”.

same assay, conditions: P23H cells, compound concentration 10 μM, 48 hours, regeneration with 9-cis-retinal (20 μM)

Compared with `CCC1=CC(=O)[C@H]2C(C)(C)CCC[C@@]12C` (racemic) [Compound 34, (±)-(3aR,7aS)-3-ethyl-3a,7,7-trimethyl-3a,4,5,6,7,7a-hexahydro-1H-inden-1-one], `CC(C)(C)C1=CC(=O)[C@H]2C(C)(C)CCC[C@@]12C` (racemic) [Compound 43, (±)-(3aR,7aS)-3-tert-butyl-3a,7,7-trimethyl-3a,4,5,6,7,7a-hexahydro-1H-inden-1-one] is lower in “Fold Increase Over Control (480-500 nm absorbance as fold increase over the DMSO control)” value (“Fold Increase Over Control” for short): 2.2 fold for the first, 1.7 fold for the second.

Compared with `CC(C)C1=CC(=O)[C@H]2C(C)(C)CCC[C@@]12C` (racemic) [Compound 29, (±)-(3aR,7aS)-3-isopropyl-3a,7,7-trimethyl-3a,4,5,6,7,7a-hexahydro-1H-inden-1-one], `CC(C)C1=CC(=NO)[C@H]2C(C)(C)CCC[C@@]12C` (racemic) [Compound 45, (±)-(3aR,7aS)-3-isopropyl-3a,7,7-trimethyl-3a,4,5,6,7,7a-hexahydro-1H-inden-1-one oxime] is higher in “Fold Increase Over Control” value: 2.4 fold for the first, 3.0 fold for the second.

First: CC1(C)CCCC2(C)CC(=NO)C=C12 (stereo not shown) [Compound 30, 4,4,7a-trimethyl-5,6,7,7a-tetrahydro-1H-inden-2(4H)-one oxime]
Second: CON=C1C=C2C(C)(C)CCCC2(C)C1 (stereo not shown) [Compound 31, 4,4,7a-trimethyl-5,6,7,7a-tetrahydro-1H-inden-2(4H)-one O-methyl oxime]
The “Fold Increase Over Control” value of the first is higher: 1.8 fold for the first, 1.6 fold for the second.

Going from `CC1(C)CCCC2CC(=NO)CC21` (stereo not shown) [Compound 55, 4,4-dimethylhexahydro-1H-inden-2(3H)-one oxime] to `CC1(C)CCC[C@@]2(C)C(=NO)CC[C@@H]12` (racemic) [Compound 33, (±)-(3aS,7aR)-4,4,7a-trimethyloctahydro-1H-inden-1-one oxime], the “Fold Increase Over Control” value falls from 2.8 fold to 1.8 fold.

Compared with `CC1(C)CCCC2CC(=O)C=C21` (stereo not shown) [Compound 53, 4,4-dimethyl-5,6,7,7a-tetrahydro-1H-inden-2(4H)-one], `CC1(C)CCC(C)(C)C2CC(=O)C=C21` (stereo not shown) [Compound 41, 4,4,7,7-tetramethyl-5,6,7,7a-tetrahydro-1H-inden-2(4H)-one] is higher in “Fold Increase Over Control” value: 1.7 fold for the first, 1.9 fold for the second.

First: CC1(C)CCC[C@@]2(C)C(C3CC3)=CC(=O)[C@@H]12 (racemic) [Compound 44, (±)-(3aR,7aS)-3-cyclopropyl-3a,7,7-trimethyl-3a,4,5,6,7,7a-hexahydro-1H-inden-1-one]
Second: CC(C)[C@@H]1CC(=O)[C@H]2C(C)(C)CCC[C@@]12C (racemic) [Compound 46, (±)-(3S,3aS,7aS)-3-isopropyl-3a,7,7-trimethyloctahydro-1H-inden-1-one]
The “Fold Increase Over Control” value of the first is higher: 2.2 fold for the first, 1.8 fold for the second.

Compared with `CC1(C)CCC[C@@]2(C)C=C[C@@H](O)[C@@H]12` (racemic) [Compound 37, (±)-(1R,3aS,7aS)-3a,7,7-trimethyl-3a,4,5,6,7,7a-hexahydro-1H-inden-1-ol], `CC1(C)CCC[C@@]2(C)C=C[C@H](O)[C@@H]12` (racemic) [Compound 36, (±)-(1S,3aS,7aS)-3a,7,7-trimethyl-3a,4,5,6,7,7a-hexahydro-1H-inden-1-ol] is higher in “Fold Increase Over Control” value: 1.8 fold for the first, 2.0 fold for the second.

Compared with `CON=C1C=C(C(C)C)[C@]2(C)CCCC(C)(C)[C@H]12` (racemic) [Compound 51, (±)-(3aR,7aS)-3-isopropyl-3a,7,7-trimethyl-3a,4,5,6,7,7a-hexahydro-1H-inden-1-one O-methyl oxime], `CC1(C)CCC[C@@]2(C)CC(=O)C[C@@H]12` (racemic) [Compound 40, (±)-(3aS,7aS)-3a,7,7-trimethylhexahydro-1H-inden-2(3H)-one] is higher in “Fold Increase Over Control” value: 1.7 fold for the first, 1.8 fold for the second.

Compared with `CC1(C)CCCC2=C1CCC2=O` [Compound 56, 4,4-dimethyl-2,3,4,5,6,7-hexahydro-1H-inden-1-one], `CC1(C)CCCC2=CC(=O)CC21` (stereo not shown) [Compound 27, 7,7-dimethyl-5,6,7,7a-tetrahydro-1H-inden-2(4H)-one] is higher in “Fold Increase Over Control” value: 1.7 fold for the first, 2.0 fold for the second.

same assay, conditions: P23H cells, compound concentration 20 μM, 48 hours, regeneration with 9-cis-retinal (20 μM)

`CC1(C)CCC[C@@]2(C)CC(CO)C[C@@H]12` (mixture of isomers) [Compound 26, (±)-((3aS,7aS)-3a,7,7-trimethyloctahydro-1H-inden-2-yl)methanol] and `CC1(C)CCC[C@@]2(C)CC(O)C[C@@H]12` (mixture of isomers) [Compound 63, (±)-(3aS,7aS)-3a,7,7-trimethyloctahydro-1H-inden-2-ol] are the same in “Fold Increase Over Control” value: 2.3 fold for the first, 2.3 fold for the second.

Compared with `CC(C)[C@@H]1C[C@H](O)[C@H]2C(C)(C)CCC[C@@]12C` (racemic) [Compound 58, (±)-(1S,3S,3aS,7aS)-3-isopropyl-3a,7,7-trimethyloctahydro-1H-inden-1-ol], `CC1(C)CCC[C@@]2(C)CC[C@H](O)[C@@H]12` (racemic) [Compound 60, (±)-(1S,3aS,7aS)-3a,7,7-trimethyloctahydro-1H-inden-1-ol] is higher in “Fold Increase Over Control” value: 2.0 fold for the first, 2.1 fold for the second.

Compared with `CC1=C(C)[C@]2(C)CCCC(C)(C)[C@@H]2[C@H]1O` (racemic) [Compound 66, (±)-(1R,3aR,7aS)-2,3,3a,7,7-pentamethyl-3a,4,5,6,7,7a-hexahydro 1H inden-1-ol], `CC1=C(C)[C@]2(C)CCCC(C)(C)[C@@H]2C1=O` (racemic) [Compound 65, (±)-(3aR,7aS)-2,3,3a,7,7-pentamethyl-3a,4,5,6,7,7a-hexahydro-1H-inden-1-one] is lower in “Fold Increase Over Control” value: 1.9 fold for the first, 1.8 fold for the second.

Compared with `CC1(C)CCC[C@@]2(C)C=C(CO)C[C@@H]12` (racemic) [Compound 22, (±)-((3aS,7aS)-3a,7,7-trimethyl-3a,4,5,6,7,7a-hexahydro-1H-inden-2-yl)methanol], `CC1(C)CCC[C@@]2(C)CC(=NO)C[C@@H]12` (racemic) [Compound 62, (±)-(3aS,7aS)-3a,7,7-trimethylhexahydro-1H-inden-2(3H)-one oxime] is higher in “Fold Increase Over Control” value: 1.8 fold for the first, 2.3 fold for the second.

Compared with `CC1(C)CCC(C)(C)[C@H]2OC(=O)C[C@H]21` (racemic) [Compound 3, (±)-(3aS,7aS)-4,4,7,7-tetramethylhexahydrobenzofuran-2(3H)-one], `CC1(C)CCC(C)(C)[C@H]2CC(=O)C[C@H]21` [Compound 70, (3aR,7aS) and (3aS,7aR)-4,4,7,7-tetramethylhexahydro-1H-inden-2(3H)-one] is lower in “Fold Increase Over Control” value: 2.2 fold for the first, 1.9 fold for the second.

`C[C@H]1C(=O)C=C2[C@H]1CCCC2(C)C` (racemic) [Compound 67, (±)-(1R,7aS)-1,4,4-trimethyl-5,6,7,7a-tetrahydro-1H-inden-2(4H)-one] and `CC(C)[C@H]1C(=O)C=C2[C@H]1CCCC2(C)C` (racemic) [Compound 61, (±)-(1R,7aS)-1-isopropyl-4,4-dimethyl-5,6,7,7a-tetrahydro-1H-inden-2(4H)-one] are the same in “Fold Increase Over Control” value: 1.8 fold for the first, 1.8 fold for the second.

Compared with `CC1(C)CCC(C)(C)C2CC(=O)C=C21` (single isomer, unassigned) [Compound 69b, (−)-4,4,7,7-tetramethyl-5,6,7,7a-tetrahydro-1H-inden-2(4H)-one], `C[C@H]1C(=O)C=C2C(C)(C)CCC[C@]21C` (racemic) [Compound 20, (±)-(1R,7aS)-1,4,4,7a-tetramethyl-5,6,7,7a-tetrahydro-1H-inden-2(4H)-one] is higher in “Fold Increase Over Control” value: 1.8 fold for the first, 1.9 fold for the second.

First: CC(=O)/C=C/C1=C(C)CCCC1(C)C [β-ionone, reference compound]
Second: CN1CC2=C(C1=O)C(C)(C)CCC2 [Compound 13, 2,7,7-trimethyl-2,3,4,5,6,7-hexahydro-1H-isoindol-1-one]
The “Fold Increase Over Control” value of the first is higher: 2.4 fold for the first, 2.2 fold for the second.

First: CC1=C(C)[C@H]2[C@H](CCCC2(C)C)[C@@H]1O (racemic) [Compound 72, (±)-(1S,3aS,7aS)-2,3,4,4-tetramethyl-3a,4,5,6,7,7a-hexahydro-1H-inden-1-ol]
Second: CC1=C(C)[C@H]2[C@H](CCCC2(C)C)C1=O (racemic) [Compound 64, (±)-(3aS,7aS)-2,3,4,4-tetramethyl-3a,4,5,6,7,7a-hexahydro-1H-inden-1-one]
The “Fold Increase Over Control” value of the first is lower: 1.9 fold for the first, 2.1 fold for the second.

Going from `CC1=CC(=NO)[C@H]2C(C)(C)CCC[C@@]12C` (racemic) [Compound 14, (±)-(3aR,7aS)-3,3a,7,7-tetramethyl-3a,4,5,6,7,7a-hexahydro-1H-inden-1-one oxime] to `CC1(C)CCC[C@@]2(C)[C@@H](O)CC[C@@H]12` (racemic) [Compound 18, (±)-(1S,3aS,7aR)-4,4,7a-trimethyloctahydro-1H-inden-1-ol], the “Fold Increase Over Control” value falls from 2.4 fold to 1.7 fold.

With `C[C@@H]1CC(=O)C2=CCCC(C)(C)[C@H]21` (racemic) [Compound 71, (±)-(3R,3aR)-3,4,4-trimethyl-2,3,3a,4,5,6-hexahydro-1H-inden-1-one] the “Fold Increase Over Control” value was 2.2 fold.
